From patent publication US20030068615A1, “Polypeptides that bind HIV gp120 and related nucleic acids, antibodies, compositions, and methods of use” (priority 1999, published 2003)
Several values for one entry are separate records, joined by “and”; a condition that tells them apart may be missing. Equal values may be shown once. Read-outs that look alike come from different tables or passages of the source.

Molecular target: HIV-1LAI envelope gp120 (Human immunodeficiency virus type 1 group M subtype B, UniProt P03377)
Assay type: binding
Conditions: for number of radioactive decays (counts) counted: human CD4 21-mer scan, empty control 2075; for Counts per 20′ Average-background: CCR5 18-mer scan, radiolabeled HIV-1LAI gp120; for Relative % of Control: mean of two syntheses and binding experiments ± average deviation, wild-type = 100%; for Binding Results For Window Length (counts bound-background), 9 / Binding Results For Window Length (counts bound-background), 12 / Binding Results For Window Length (counts bound-background), 15 / Binding Results For Window Length (counts bound-background), 18: STRL33 amino terminus; for Binding Results For Window Length (counts bound-background), 9: 9-mer starting at the first residue of the printed sequence; for Binding Results For Window Length (counts bound-background), 12: 12-mer starting at the first residue of the printed sequence; for Binding Results For Window Length (counts bound-background), 15: 15-mer starting at the first residue of the printed sequence; for Binding Results For Window Length (counts bound-background), 18: 18-mer starting at the first residue of the printed sequence
[1] = CXCR4 18-mer scan, background subtracted, empty control 0
[2] = CXCR4 18-mer scan, empty control 412
[3] = Panel E, 9-mers and 12-mers of CD4, empty control 571
[4] = Panel A, 21-mers of CD4, empty control 515 and 617
[5] = Panel C, 15-mers and 18-mers of CD4, empty control 556
[6] = Panel D, 9-mers and 12-mers of CD4, empty control […]
[7] = Panel G, alanine replacements and serial truncations (Z) of CD4 polypeptides, empty control 580
[8] = STRL33 18-mer scan, background subtracted, first of two count columns
[9] = STRL33 18-mer scan, background subtracted, second of two count columns
[10] = Panel B, 15-mers and 18-mers of CD4, empty control 575
[11] = Panel F, sequential alanine replacements of CD4 polypeptides, duplicate series, empty control 569

Sequence: IIKQGCEFENTVEKWISI [CXCR4 segment 269-286]
- radioactive counts recorded in twenty minutes [1]: 106 counts
- radioactive counts recorded in twenty minutes [2]: 518 counts

Sequence: VYKKEGEQV
- COUNTS of radiolabeled gp120 retained [3]: 490 counts

Sequence: VEFSFPLAFTVEKLTGSGELW
- COUNTS of radiolabeled gp120 retained [4]: 633 counts

Sequence: AFTVEKLTGSGELWWQAE
- COUNTS of radiolabeled gp120 retained [5]: 788 counts

Sequence: ICEVEDQKEEVQ
- COUNTS of radiolabeled gp120 retained [6]: 585 counts

Sequence: FLTGIVGNGLVILVMGYQ [CXCR4 segment 49-66]
- radioactive counts recorded in twenty minutes [1]: 246 counts
- radioactive counts recorded in twenty minutes [2]: 658 counts

Sequence: KIDIVVLAFQKASSIVYKKEG
- COUNTS of radiolabeled gp120 retained [4]: 1394 counts
- number of radioactive decays (counts) counted: 3681 counts

Sequence: DLWVVVFQFQHIMVGLIL [CXCR4 segment 193-210]
- radioactive counts recorded in twenty minutes [1]: 422 counts
- radioactive counts recorded in twenty minutes [2]: 834 counts

Sequence: QVEFSFPLA
- COUNTS of radiolabeled gp120 retained [3]: 1205 counts

Sequence: KLLAEKVVYVGVWIPALL
- radioactive counts recorded in twenty minutes [1]: 89 counts
- radioactive counts recorded in twenty minutes [2]: 501 counts

Sequence: GEQVAFSFPLAFTVE
- COUNTS of radiolabeled gp120 retained [7]: 16668 counts and 13930 counts

Sequence: YTINFYTSMLILTCITVD
- radioactive counts recorded in twenty minutes [8]: 351.5 counts
- radioactive counts recorded in twenty minutes [9]: 510.5 counts

Sequence: SCYCIIISKLSHSKGHQK
- radioactive counts recorded in twenty minutes [1]: 259 counts
- radioactive counts recorded in twenty minutes [2]: 671 counts

Sequence: GEKFRNYLLVFFQKHIAK [CCR5 segment 301-]
- Counts per 20′ Average-background (background subtracted): 69 counts per 20′

Sequence: QWDFGNTMCQLLTGLYFI [CCR5 segment 93-]
- Counts per 20′ Average-background (background subtracted): 1019 counts per 20′

Sequence: NKIFLPTIYSIIFLTGIV [CXCR4 segment 37-54]
- radioactive counts recorded in twenty minutes [1]: 138 counts
- radioactive counts recorded in twenty minutes [2]: 550 counts

Sequence: DQKEEVQLL
- COUNTS of radiolabeled gp120 retained [6]: 589 counts

Sequence: IDIVVLAFQKASSIVYKKEGE
- COUNTS of radiolabeled gp120 retained [4]: 962 counts

Sequence: SEPCQKINVKQIAARLLP [CCR5 segment 17-34]
- Counts per 20′ Average-background (background subtracted): −44 counts per 20′

Sequence: QNQKKVEFK
- COUNTS of radiolabeled gp120 retained [3]: 537 counts

Sequence: AVRLIFTIMTVYFLFWAP [CCR5 segment 233-]
- Counts per 20′ Average-background (background subtracted): 62 counts per 20′

Sequence: PVLYAFVSLKFRKNFWKL [STRL33 segment 285-302]
- radioactive counts recorded in twenty minutes [8]: 1859.5 counts
- radioactive counts recorded in twenty minutes [9]: 2147.5 counts

Sequence: EVQLLVFGLTANSDT
- COUNTS of radiolabeled gp120 retained [10]: 2689 counts

Sequence: QNQKKVEFKIDIVVLAFQ
- COUNTS of radiolabeled gp120 retained [5]: 917 counts

Sequence: CKAVHVIYTVNLYSSVLI
- radioactive counts recorded in twenty minutes [1]: 243 counts
- radioactive counts recorded in twenty minutes [2]: 655 counts

Sequence: ASSIVYKKEGEQ
- COUNTS of radiolabeled gp120 retained [3]: 523 counts

Sequence: FQKASSIVYKKE
- COUNTS of radiolabeled gp120 retained [3]: 577 counts

Sequence: HSSVSTESESSSFHSS
- radioactive counts recorded in twenty minutes [1]: 103 counts
- radioactive counts recorded in twenty minutes [2]: 515 counts

Sequence: QKHIAKRFCKCCSIFQQE [CCR5 segment 313-]
- Counts per 20′ Average-background (background subtracted): 23 counts per 20′

Sequence: MEAISIYTSDNYTEEMGS
- Relative % of Control (CXCR4 (1-18) alanine variants): 101 ± 3%

Sequence: SEDNSKTFSASHNVEATS [STRL33 segment 321-338]
- radioactive counts recorded in twenty minutes [8]: 524.5 counts

Sequence: VVLAFQKASSIV
- COUNTS of radiolabeled gp120 retained [3]: 567 counts

Sequence: KRHRAVRLIFTIMIVYFL [CCR5 segment 229-]
- Counts per 20′ Average-background (background subtracted): 36 counts per 20′

Sequence: LEAKTGKLHQEVNLVVMRATQ [human CD4 301-321]
- number of radioactive decays (counts) counted: 1729 counts

Sequence: EEVQLLVFGATANSD
- COUNTS of radiolabeled gp120 retained [11]: 19978 counts and 10408 counts

Sequence: IDIVVLAFQKAS
- COUNTS of radiolabeled gp120 retained [3]: 630 counts

Sequence: MDYQVSSPAYDINYYTSE [CCR5 (1-18) variant printed 19A]
- Relative % of Control (CCR5 (1-18) alanine variants): 24 ± 7%

Sequence: YDSMKEPCFREENANFNK [CXCR4 segment 21-38]
- radioactive counts recorded in twenty minutes [1]: 53 counts
- radioactive counts recorded in twenty minutes [2]: 465 counts

Sequence: IVYKKEGEQVEFSFPLAFTVE
- COUNTS of radiolabeled gp120 retained [4]: 15620 counts

Sequence: GEQVEFSAPLAFTVE
- COUNTS of radiolabeled gp120 retained [7]: 7767 counts and 7378 counts

Sequence: QGNFPLIIKNLK
- COUNTS of radiolabeled gp120 retained [6]: 533 counts

Sequence: EVEDQKEEVQLLVFG
- COUNTS of radiolabeled gp120 retained [10]: 2805 counts

Sequence: CTVLQNQKKVEFKID
- COUNTS of radiolabeled gp120 retained [5]: 608 counts

Sequence: QKKVEFKIDIVVLAFQKA
- COUNTS of radiolabeled gp120 retained [5]: 1013 counts

Sequence: HFPYSQYQFWKNFQTLKI
- Counts per 20′ Average-background (background subtracted): 1008 counts per 20′

Sequence: VEFKIDIVVLAFQKASSI
- COUNTS of radiolabeled gp120 retained [5]: 819 counts

Sequence: ALKTTVILILAFFACWLP [CXCR4 segment 237-254]
- radioactive counts recorded in twenty minutes [1]: 261 counts
- radioactive counts recorded in twenty minutes [2]: 673 counts

Sequence: EEVQLLVFGLTANSD
- COUNTS of radiolabeled gp120 retained [10]: 6423 counts
- COUNTS of radiolabeled gp120 retained [11]: 18721 counts and 18582 counts and 19738 counts and 21338 counts
- COUNTS of radiolabeled gp120 retained [7]: 18040 counts and 23357 counts

Sequence: DSDTYICEV
- COUNTS of radiolabeled gp120 retained [6]: 712 counts

Sequence: MEGISIYTSDNYTAEMGS
- Relative % of Control (CXCR4 (1-18) alanine variants): 72 ± 1%

Sequence: IDIVVLAFQKASSIVYKK
- COUNTS of radiolabeled gp120 retained [5]: 711 counts

Sequence: MDYQVSSPIYDIAYYTSE
- Relative % of Control (CCR5 (1-18) alanine variants): 253 ± 19%

Sequence: VEFSFPLAFTVEKLTGSG
- COUNTS of radiolabeled gp120 retained [5]: 533 counts

Sequence: ASSIVYKKEGEQVEFSFPLAF
- COUNTS of radiolabeled gp120 retained [4]: 25146 counts

Sequence: EGEQVEFSFPLAFTVEKLTGS
- COUNTS of radiolabeled gp120 retained [4]: 739 counts

Sequence: SFPLAFTVE
- COUNTS of radiolabeled gp120 retained [3]: 619 counts

Sequence: FQKASSIVY
- COUNTS of radiolabeled gp120 retained [3]: 568 counts

Sequence: TVLQNQKKVEFKIDI
- COUNTS of radiolabeled gp120 retained [5]: 587 counts

Sequence: HLTLPQALPQYAGSGNLTLAL [human CD4 281-301]
- number of radioactive decays (counts) counted: 2394 counts

Sequence: LRSMTDKYRLHLSVADLL [CXCR4 segment 69-86]
- radioactive counts recorded in twenty minutes [1]: 160 counts
- radioactive counts recorded in twenty minutes [2]: 572 counts

Sequence: KLICGYHDEAISTVVLAT [STRL33 segment 177-194]
- radioactive counts recorded in twenty minutes [8]: 1363.5 counts
- radioactive counts recorded in twenty minutes [9]: 1604.5 counts

Sequence: EDYGFSSFNDSSQEEHQA
- Binding Results For Window Length (counts bound-background), 9 (background subtracted): 953 counts
- Binding Results For Window Length (counts bound-background), 12 (background subtracted): 817 counts
- Binding Results For Window Length (counts bound-background), 15 (background subtracted): 1152 counts
- Binding Results For Window Length (counts bound-background), 18 (background subtracted): 548 counts

Sequence: DYHEDYGFSSFNDSSQEE [STRL33 segment 5-22]
- radioactive counts recorded in twenty minutes [8]: 3357.5 counts
- radioactive counts recorded in twenty minutes [9]: 3689.5 counts
- Binding Results For Window Length (counts bound-background), 9 (background subtracted): 851 counts
- Binding Results For Window Length (counts bound-background), 12 (background subtracted): 1554 counts
- Binding Results For Window Length (counts bound-background), 15 (background subtracted): 1240 counts
- Binding Results For Window Length (counts bound-background), 18 (background subtracted): 1191 counts

Sequence: FREENANFNKIFLPTIYS [CXCR4 segment 29-46]
- radioactive counts recorded in twenty minutes [1]: 51 counts
- radioactive counts recorded in twenty minutes [2]: 463 counts

Sequence: MDYQVSSPIYDINYYTSE
- Counts per 20′ Average-background (background subtracted): 735 counts per 20′
- Relative % of Control (CCR5 (1-18) alanine variants): 100%

Sequence: TVLQNQKKV
- COUNTS of radiolabeled gp120 retained [3]: 534 counts

Sequence: YICEVEDQKEEV
- COUNTS of radiolabeled gp120 retained [6]: 734 counts

Sequence: VMVICYSGILKTLLRCRN [CCR5 segment 209-]
- Counts per 20′ Average-background (background subtracted): −8 counts per 20′

Sequence: MLILTCITVDRFIVVVKA
- radioactive counts recorded in twenty minutes [8]: 298.5 counts
- radioactive counts recorded in twenty minutes [9]: 228.5 counts

Sequence: EGEQVEFSFPLAFTVEKL
- COUNTS of radiolabeled gp120 retained [5]: 2164 counts

Sequence: EEVQLLVAGLTANSD
- COUNTS of radiolabeled gp120 retained [11]: 9573 counts and 11480 counts

Sequence: ATQMTLGFFLPLLTMIVC [STRL33 segment 193-210]
- radioactive counts recorded in twenty minutes [8]: 2365.5 counts
- radioactive counts recorded in twenty minutes [9]: 2444.5 counts

Sequence: AFQKASSIV
- COUNTS of radiolabeled gp120 retained [3]: 595 counts

Sequence: NSDTHLLQG
- COUNTS of radiolabeled gp120 retained [6]: 561 counts

Sequence: FPLAFTVEK
- COUNTS of radiolabeled gp120 retained [3]: 569 counts
